Reference: patent US20240208934A1, “ULK1/2 INHIBITORS AND THEIR USE THEREOF” (LifeArc, priority 2021, published 2024)

System: ULK
Assay: ULK radiometric assay (33P incorporation onto MBP substrate, glass fiber capture filter)
Settings: ULK Biochemical activity; 20 uM ATP, 0.2 mg/mL MBP; averages of at least two independent experiments
Protocol: ULK activity was measured using a radiometric assay, to measure the incorporation of radiolabelled ^33P onto MBP substrate using a glass fiber capture filter method. Reaction conditions were 0.2 mg/mL MBP, 20 uM ATP (0.25 μCi/well), 50 mM Tris HCl, pH7.5, 10 mM MgCl2, 0.1% beta-mercaptoethanol, 0.1 mM EGTA, 0.01% BSA. Ten point Half log Compound dilution series were prepared in 100% DMSO and added to the reaction to give final assay concentration of 10% DMSO. Compounds were tested in duplicate and values normalized to 10% DMSO only controls. The data were fitted to a four parameter fit equation and the IC50 values shown are averages of at least two independent experiments.

SMILES	IC50 [nM]
COc1cc(COC(C)C)ccc1Nc1ncc(C(F)(F)F)c(NCCCN2CCCCC2=O)n1 [Example 35, 1-[3-[[2-[4-(Isopropoxymethyl)-2-methoxy-anilino]-5-(trifluoromethyl)pyrimidin-4-yl]amino]propyl]piperidin-2-one]	≥ 1000
COc1cc(C(=O)O)ccc1Nc1ncc(C(F)(F)F)c(NCCCN2CCCCC2=O)n1 [Example 36, 3-Methoxy-4-[[4-[3-(2-oxo-1-piperidyl)propylamino]-5-(trifluoromethyl)pyrimidin-2-yl]amino]benzoic acid]	≥ 1000
COc1cc2c(cc1Nc1ncc(C(F)(F)F)c(NCCCN3CCCCC3=O)n1)C(=O)N(C)C2 [Example 37, 5-Methoxy-2-methyl-6-[[4-[3-(2-oxo-1-piperidyl)propylamino]-5-(trifluoromethyl)pyrimidin-2-yl]amino]isoindolin-1-one]	≥ 1000
COc1cc(C(=O)N2CCOCC2)ccc1Nc1ncc(C(F)(F)F)c(NCCCN2CCCCC2=O)n1 [Example 38, 1-[3-[[2-[2-Methoxy-4-(morpholine-4-carbonyl)anilino]-5-(trifluoromethyl)pyrimidin-4-yl]amino]propyl]piperidin-2-one]	≥ 1000
CNC(=O)c1ccc(Nc2ncc(C(F)(F)F)c(NCCCN3CCCCC3=O)n2)c(OC)c1 [Example 39, 3-Methoxy-N-methyl-4-[[4-[3-(2-oxo-1-piperidyl)propylamino]-5-(trifluoromethyl)pyrimidin-2-yl]amino]benzamide]	≥ 1000
COc1cc(C(=O)N(C)C)ccc1Nc1ncc(C(F)(F)F)c(NCCCN2CCCCC2=O)n1 [Example 40, 3-Methoxy-N,N-dimethyl-4-[[4-[3-(2-oxo-1-piperidyl)propylamino]-5-(trifluoromethyl)pyrimidin-2-yl]amino]benzamide]	≥ 1000
COc1ccc(CO)cc1Nc1ncc(C(F)(F)F)c(NCCCN2CCCCC2=O)n1 [Example 47, 1-[3-[[2-[5-(Hydroxymethyl)-2-methoxy-anilino]-5-(trifluoromethyl)pyrimidin-4-yl]amino]propyl]piperidin-2-one]	≥ 1000
CC(C)Oc1nn(C)cc1Nc1ncc(C(F)(F)F)c(NCCCN2CCCCC2=O)n1 [Example 49, 1-[3-[[2-[(3-Isopropoxy-1-methyl-pyrazol-4-yl)amino]-5-(trifluoromethyl)pyrimidin-4-yl]amino]propyl]piperidin-2-one]	≥ 1000
CN(C)S(=O)(=O)c1cc2c(c(Nc3ncc(C(F)(F)F)c(NCCCN4CCCCC4=O)n3)c1)OCC2 [Example 50, N,N-dimethyl-7-[[4-[3-(2-oxo-1-piperidyl)propylamino]-5-(trifluoromethyl)pyrimidin-2-yl]amino]-2,3-dihydrobenzofuran-5-sulfonamide]	≥ 1000
O=C1CCCCN1CCCNc1nc(Nc2cc(S(=O)(=O)N3CCOCC3)cc3c2OCC3)ncc1C(F)(F)F [Example 51, 1-[3-[[2-[(5-Morpholinosulfonyl-2,3-dihydrobenzofuran-7-yl)amino]-5-(trifluoromethyl)pyrimidin-4-yl]amino]propyl]piperidin-2-one]	≥ 1000
COc1nn(CCN2CCOCC2)cc1Nc1ncc(C(F)(F)F)c(NCCCN2CCCCC2=O)n1 [Example 53, 1-[3-[[2-[[3-Methoxy-1-(2-morpholinoethyl)pyrazol-4-yl]amino]-5-(trifluoromethyl)pyrimidin-4-yl]amino]propyl]piperidin-2-one]	≥ 1000
CC(=O)N1CCc2cc(Cl)c(Nc3ncc(C(F)(F)F)c(NCCCN4CCCCC4=O)n3)cc2C1 [Example 56, 1-[3-[[2-[(2-Acetyl-6-chloro-3,4-dihydro-1H-isoquinolin-7-yl)amino]-5-(trifluoromethyl)pyrimidin-4-yl]amino]propyl]piperidin-2-one]	200 to 1000
O=C1CCCCN1CCCNc1nc(Nc2cc(O)ccc2Cl)ncc1C(F)(F)F [Example 57, 1-[3-[[2-(2-Chloro-5-hydroxy-anilino)-5-(trifluoromethyl)pyrimidin-4-yl]amino]propyl]piperidin-2-one]	200 to 1000
CN(C)CCOc1ccc(Cl)c(Nc2ncc(C(F)(F)F)c(NCCCN3CCCCC3=O)n2)c1 [Example 58, 1-[3-[[2-[2-Chloro-5-[2-(dimethylamino)ethoxy]anilino]-5-(trifluoromethyl)pyrimidin-4-yl]amino]propyl]piperidin-2-one]	200 to 1000
O=C1CCCCN1CCCNc1nc(Nc2cc(OCCN3CCOCC3)ccc2Cl)ncc1C(F)(F)F [Example 59, 1-[3-[[2-[2-Chloro-5-(2-morpholinoethoxy)anilino]-5-(trifluoromethyl)pyrimidin-4-yl]amino]propyl]piperidin-2-one]	200 to 1000
COc1ccc(CN2CCOCC2)cc1Nc1ncc(C(F)(F)F)c(NCCCN2CCCCC2=O)n1 [Example 61, 1-[3-[[2-[2-Methoxy-5-(morpholinomethyl)anilino]-5-(trifluoromethyl)pyrimidin-4-yl]amino]propyl]piperidin-2-one]	≥ 1000
CN(C)CCCN(C)c1nc(Nc2ccc3c(c2)CCNC3)ncc1C(F)(F)F [Example 64, N4-[3-(dimethylamino)propyl]-N4-methyl-N2-(1,2,3,4-tetrahydroisoquinolin-6-yl)-5-(trifluoromethyl)pyrimidine-2,4-diamine]	200 to 1000

Next, values leading:

IC50 [nM]	SMILES
200 to 1000	COc1cc(C(=O)N2CCN(C)CC2)ccc1Nc1ncc(C(F)(F)F)c(NCCCN2CCCCC2=O)n1 [Example 41, 1-[3-[[2-[2-Methoxy-4-(4-methylpiperazine-1-carbonyl)anilino]-5-(trifluoromethyl)pyrimidin-4-yl]amino]propyl]piperidin-2-one]
200 to 1000	COc1cc(C(=O)NC2CCNCC2)ccc1Nc1ncc(C(F)(F)F)c(NCCCN2CCCCC2=O)n1 [Example 42, 3-Methoxy-4-[[4-[3-(2-oxo-1-piperidyl)propylamino]-5-(trifluoromethyl)pyrimidin-2-yl]amino]-N-(4-piperidyl)benzamide]
< 200	O=C1CCCCN1CCCNc1nc(Nc2cc3c(cc2Cl)CCNC3)ncc1C(F)(F)F [Example 43, 1-[3-[[2-[(6-Chloro-1,2,3,4-tetrahydroisoquinolin-7-yl)amino]-5-(trifluoromethyl)pyrimidin-4-yl]amino]propyl]piperidin-2-one]
200 to 1000	O=C1CCCCN1CCCNc1nc(Nc2cc(OC3CCNCC3)ccc2Cl)ncc1C(F)(F)F [Example 44, 1-[3-[[2-[2-Chloro-5-(4-piperidyloxy)anilino]-5-(trifluoromethyl)pyrimidin-4-yl]amino]propyl]piperidin-2-one]
< 200	O=C1CCCCN1CCCNc1nc(Nc2cc3c(cc2C(F)(F)F)CCNC3)ncc1C(F)(F)F [Example 45, 1-[3-[[5-(Trifluoromethyl)-2-[[6-(trifluoromethyl)-1,2,3,4-tetrahydroisoquinolin-7-yl]amino]pyrimidin-4-yl]amino]propyl]piperidin-2-one]
200 to 1000	CCOc1nn(C)cc1Nc1ncc(C(F)(F)F)c(NCCCN2CCCCC2=O)n1 [Example 46, 1-[3-[[2-[(3-Ethoxy-1-methyl-pyrazol-4-yl)amino]-5-(trifluoromethyl)pyrimidin-4-yl]amino]propyl]piperidin-2-one]
200 to 1000	Cn1cc(Nc2ncc(C(F)(F)F)c(NCCCN3CCCCC3=O)n2)c(OCC(F)(F)F)n1 [Example 48, 1-[3-[[2-[[1-Methyl-3-(2,2,2-trifluoroethoxy)pyrazol-4-yl]amino]-5-(trifluoromethyl)pyrimidin-4-yl]amino]propyl]piperidin-2-one]
200 to 1000	O=C1CCCCN1CCCNc1nc(Nc2cc(S(=O)(=O)N3CCNCC3)cc3c2OCC3)ncc1C(F)(F)F [Example 52, 1-[3-[[2-[(5-Piperazin-1-ylsulfonyl-2,3-dihydrobenzofuran-7-yl)amino]-5-(trifluoromethyl)pyrimidin-4-yl]amino]propyl]piperidin-2-one]
< 200	O=C1CCCCN1CCCNc1nc(Nc2ccc(N3CCOCC3)cc2Cl)ncc1C(F)(F)F [Example 54, 1-[3-[[2-(2-Chloro-4-morpholino-anilino)-5-(trifluoromethyl)pyrimidin-4-yl]amino]propyl]piperidin-2-one]
200 to 1000	O=C1CCCCN1CCCNc1nc(Nc2cc(CN3CCOCC3)ccc2Cl)ncc1C(F)(F)F [Example 55, 1-[3-[[2-[2-Chloro-5-(morpholinomethyl)anilino]-5-(trifluoromethyl)pyrimidin-4-yl]amino]propyl]piperidin-2-one]
< 200	CNCc1ccc(OC)c(Nc2ncc(C(F)(F)F)c(NCCCN3CCCCC3=O)n2)c1 [Example 60, 1-[3-[[2-[2-Methoxy-5-(methylaminomethyl)anilino]-5-(trifluoromethyl)pyrimidin-4-yl]amino]propyl]piperidin-2-one]
< 200	O=C(NCCCNc1nc(Nc2ccc3c(c2)CCNC3)ncc1C(F)(F)F)C1CCC1 [Example 62, N-(3-((2-((1,2,3,4-tetrahydroisoquinolin-6-yl)amino)-5-(trifluoromethyl)pyrimidin-4-yl)amino)propyl)cyclobutanecarboxamide]
< 200	FC(F)(F)c1cnc(Nc2ccc3c(c2)CCNC3)nc1NCC1CNCCO1 (centres unmarked) [Example 63, N4-(morpholin-2-ylmethyl)-N2-(1,2,3,4-tetrahydroisoquinolin-6-yl)-5-(trifluoromethyl)pyrimidine-2,4-diamine]
< 200	FC(F)(F)c1cnc(Nc2ccc3c(c2)CCNC3)nc1NCCc1cnc[nH]1 [Example 65, N4-[2-(1H-imidazol-5-yl)ethyl]-N2-(1,2,3,4-tetrahydroisoquinolin-6-yl)-5-(trifluoromethyl)pyrimidine-2,4-diamine]
< 200	O=C1CCCN1CCCNc1nc(Nc2ccc3c(c2)CCNC3)ncc1C(F)(F)F [Example 66, 1-[3-[[2-(1,2,3,4-tetrahydroisoquinolin-6-ylamino)-5-(trifluoromethyl)pyrimidin-4-yl]amino]propyl]pyrrolidin-2-one]
